In the supplement of paper PMC11061612:

What was measured:
Gemcitabine = compound: Nc1ccn([C@@H]2O[C@H](CO)[C@@H](O)C2(F)F)c(=O)n1 [Gemcitabine]; conditions: max 0.3 µM
Method in brief: (§1)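 Plates with 1536 wells received cancer cell lines in 7.5 μl of DMEM/F12 or RPMI containing 10% FBS. After 24 hours at 37°C and 5% CO2, cells were dosed for 72 hours with final DMSO typically 0.2%, and viability was read by CellTiter-Glo 2.0 luminescence scaled between blank-well and DMSO-well means. The single-agent IC50 was taken from a logistic fit of the dose responses made with a non-linear mixed effects model, that logistic curve having two parameters.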

Paclitaxel = compound: CC(=O)O[C@H]1C(=O)[C@@]2(C)[C@H]([C@H](OC(=O)c3ccccc3)[C@]3(O)C[C@H](OC(=O)[C@H](O)[C@@H](NC(=O)c4ccccc4)c4ccccc4)C(C)=C1C3(C)C)[C@]1(OC(C)=O)CO[C@@H]1C[C@@H]2O [Paclitaxel]; conditions: max 3 µM
Method in brief: as §1

Taselisib = compound: Cc1nc(-c2cn3c(n2)-c2ccc(-c4cnn(C(C)(C)C(N)=O)c4)cc2OCC3)n(C(C)C)n1 [Taselisib]; conditions: max 10 µM
Method in brief: as §1

[1] = compound: O=C(Nc1ccc2[nH]nc(-c3ccncc3)c2c1)[C@@H]1CCN(CC(=O)N2CCN(c3ccc(-c4ncccn4)cc3)CC2)C1; conditions: max 5 µM
Method in brief: as §1

Etoposide = compound: COc1cc([C@@H]2c3cc4c(cc3[C@@H](O[C@@H]3O[C@@H]5CO[C@@H](C)O[C@H]5[C@H](O)[C@H]3O)[C@H]3COC(=O)[C@H]23)OCO4)cc(OC)c1O [Etoposide]; conditions: max 10 µM
Method in brief: as §1

AZD1775 = compound: C=CCn1c(=O)c2cnc(Nc3ccc(N4CCN(C)CC4)cc3)nc2n1-c1cccc(C(C)(C)O)n1 [AZD1775]; conditions: max 3 µM
Method in brief: as §1

AZD1390 = compound: CC(C)n1c(=O)n(C)c2cnc3cc(F)c(-c4ccc(OCCCN5CCCCC5)nc4)cc3c21 [AZD1390]; conditions: max 0.3 µM
Method in brief: as §1

Gefitinib = compound: COc1cc2ncnc(Nc3ccc(F)c(Cl)c3)c2cc1OCCCN1CCOCC1 [Gefitinib]; conditions: max 10 µM
Method in brief: as §1

5-Fluorouracil = compound: O=c1[nH]cc(F)c(=O)[nH]1 [5-Fluorouracil]; conditions: max 20 µM
Method in brief: as §1

SRA737 = compound: N#Cc1cnc(Nc2cc(NC[C@H]3CNCCO3)c(C(F)(F)F)cn2)cn1 [SRA737]; conditions: max 10 µM
Method in brief: as §1

Trametinib = compound: CC(=O)Nc1cccc(-n2c(=O)n(C3CC3)c(=O)c3c(Nc4ccc(I)cc4F)n(C)c(=O)c(C)c32)c1 [Trametinib]; conditions: max 1 µM
Method in brief: as §1

SN-38 = compound: CCc1c2c(nc3ccc(O)cc13)-c1cc3c(c(=O)n1C2)COC(=O)[C@]3(O)CC [SN-38]; conditions: max 0.3 µM
Method in brief: as §1

AZD5363 = compound: C1CN(CCC1(C(=O)N[C@@H](CCO)C2=CC=C(C=C2)Cl)N)C3=NC=NC4=C3C=CN4 [AZD5363]; conditions: max 10 µM
Method in brief: as §1

Carboplatin = compound: C1CC(C1)(C(=O)[O-])C(=O)[O-].N.N.[Pt+2] [Carboplatin]; conditions: max 10 µM
Method in brief: as §1

Alisertib = compound: COc1cc(Nc2ncc3c(n2)-c2ccc(Cl)cc2C(c2c(F)cccc2OC)=NC3)ccc1C(=O)O [Alisertib]; conditions: max 10 µM
Method in brief: as §1

Savolitinib = compound: C[C@@H](c1ccc2nccn2c1)n1nnc2ncc(-c3cnn(C)c3)nc21 [Savolitinib]; conditions: max 1 µM
Method in brief: as §1

Palbociclib = compound: CC(=O)c1c(C)c2cnc(Nc3ccc(N4CCNCC4)cn3)nc2n(C2CCCC2)c1=O [Palbociclib]; conditions: max 10 µM
Method in brief: as §1

MK-2206 = compound: NC1(c2ccc(-c3nc4ccn5c(=O)[nH]nc5c4cc3-c3ccccc3)cc2)CCC1 [MK-2206]; conditions: max 10 µM
Method in brief: as §1

Olaparib = compound: O=C(c1cc(Cc2n[nH]c(=O)c3ccccc23)ccc1F)N1CCN(C(=O)C2CC2)CC1 [Olaparib]; conditions: max 10 µM
Method in brief: as §1

Crizotinib = compound: C[C@@H](Oc1cc(-c2cnn(C3CCNCC3)c2)cnc1N)c1c(Cl)ccc(F)c1Cl [Crizotinib]; conditions: max 10 µM
Method in brief: as §1

Lapatinib = compound: CS(=O)(=O)CCNCc1ccc(-c2ccc3ncnc(Nc4ccc(OCc5cccc(F)c5)c(Cl)c4)c3c2)o1 [Lapatinib]; conditions: max 10 µM
Method in brief: as §1

AZD7648 = compound: Cc1cc2ncnn2cc1Nc1ncc2c(n1)n(C1CCOCC1)c(=O)n2C [AZD7648]; conditions: max 10 µM
Method in brief: as §1

AZD8186 = compound: C[C@@H](Nc1cc(F)cc(F)c1)c1cc(C(=O)N(C)C)cc2c(=O)cc(N3CCOCC3)oc12 [AZD8186]; conditions: max 10 µM
Method in brief: as §1

AZD2811 = compound: CCN(CCO)CCCOc1ccc2c(Nc3cc(CC(=O)Nc4cccc(F)c4)[nH]n3)ncnc2c1 [AZD2811]; conditions: max 1 µM
Method in brief: as §1

Venetoclax = compound: CC1(C)CCC(CN2CCN(c3ccc(C(=O)NS(=O)(=O)c4ccc(NCC5CCOCC5)c([N+](=O)[O-])c4)c(Oc4cnc5[nH]ccc5c4)c3)CC2)=C(c2ccc(Cl)cc2)C1 [Venetoclax]; conditions: max 1 µM
Method in brief: as §1

AZD0156 = compound: CN(C)CCCOc1ccc(-c2ccc3ncc4c(c3c2)n(C2CCOCC2)c(=O)n4C)cn1 [AZD0156]; conditions: max 3 µM
Method in brief: as §1

AZD6738 = compound: C[C@@H]1COCCN1C2=NC(=NC(=C2)C3(CC3)[S@](=N)(=O)C)C4=C5C=CNC5=NC=C4 [AZD6738]; conditions: max 10 µM
Method in brief: as §1

AZD5153 = compound: COc1nnc2ccc(N3CCC(c4ccc(OCCN5CCN(C)C(=O)[C@H]5C)cc4)CC3)nn12 [AZD5153]; conditions: max 1 µM
Method in brief: as §1

Prexasertib = compound: COc1cccc(OCCCN)c1-c1cc(Nc2cnc(C#N)cn2)n[nH]1 [Prexasertib]; conditions: max 1 µM
Method in brief: as §1

Selumetinib = compound: Cn1cnc2c(F)c(Nc3ccc(Br)cc3Cl)c(C(=O)NOCCO)cc21 [Selumetinib]; conditions: max 10 µM
Method in brief: as §1

AZD5991 = compound: Cc1c2c(nn1C)CSCc1cc(n(C)n1)CSc1cc(c3ccccc3c1)OCCCc1c(C(=O)O)n(C)c3c-2c(Cl)ccc13 [AZD5991]; conditions: max 1 µM
Method in brief: as §1

Dasatinib = compound: CC1=C(C(=CC=C1)Cl)NC(=O)C2=CN=C(S2)NC3=CC(=NC(=N3)C)N4CCN(CC4)CCO [Dasatinib]; conditions: max 2 µM
Method in brief: as §1

SG3199 = compound: CC1=CN2[C@@H](C1)C=NC3=CC(=C(C=C3C2=O)OC)OCCCCCOC4=C(C=C5C(=C4)N=C[C@@H]6CC(=CN6C5=O)C)OC [SG3199]; conditions: max 0.001 µM
Method in brief: as §1

Doxorubicin = compound: COc1cccc2c1C(=O)c1c(O)c3c(c(O)c1C2=O)C[C@@](O)(C(=O)CO)C[C@@H]3O[C@H]1C[C@H](N)[C@H](O)[C@H](C)O1 [Doxorubicin]; conditions: max 1 µM
Method in brief: as §1

AZD4320 = compound: CN(CC[C@H](CSC1=CC=CC=C1)NC2=C(C=C(C=C2)S(=O)(=O)NC(=O)C3=CC=C(C=C3)N4CCC(CC4)[C@H](C5=CC=CC=C5C6=CC=C(C=C6)Cl)O)S(=O)(=O)C(F)(F)F)CCO [AZD4320]; conditions: max 1 µM
Method in brief: as §1

| Cell Line | IC50, cell viability 72 h (Gemcitabine) [µM] | IC50, cell viability 72 h (Paclitaxel) [µM] | IC50, cell viability 72 h (Taselisib) [µM] | IC50, cell viability 72 h [1] [µM] | IC50, cell viability 72 h (Etoposide) [µM] | IC50, cell viability 72 h (AZD1775) [µM] | IC50, cell viability 72 h (AZD1390) [µM] | IC50, cell viability 72 h (Gefitinib) [µM] | IC50, cell viability 72 h (5-Fluorouracil) [µM] | IC50, cell viability 72 h (SRA737) [µM] | IC50, cell viability 72 h (Trametinib) [µM] | IC50, cell viability 72 h (SN-38) [µM] | IC50, cell viability 72 h (AZD5363) [µM] | IC50, cell viability 72 h (Carboplatin) [µM] | IC50, cell viability 72 h (Alisertib) [µM] | IC50, cell viability 72 h (Savolitinib) [µM] | IC50, cell viability 72 h (Palbociclib) [µM] | IC50, cell viability 72 h (MK-2206) [µM] | IC50, cell viability 72 h (Olaparib) [µM] | IC50, cell viability 72 h (Crizotinib) [µM] | IC50, cell viability 72 h (Lapatinib) [µM] | IC50, cell viability 72 h (AZD7648) [µM] | IC50, cell viability 72 h (AZD8186) [µM] | IC50, cell viability 72 h (AZD2811) [µM] | IC50, cell viability 72 h (Venetoclax) [µM] | IC50, cell viability 72 h (AZD0156) [µM] | IC50, cell viability 72 h (AZD6738) [µM] | IC50, cell viability 72 h (AZD5153) [µM] | IC50, cell viability 72 h (Prexasertib) [µM] | IC50, cell viability 72 h (Selumetinib) [µM] | IC50, cell viability 72 h (AZD5991) [µM] | IC50, cell viability 72 h (Dasatinib) [µM] | IC50, cell viability 72 h (SG3199) [µM] | IC50, cell viability 72 h (Doxorubicin) [µM] | IC50, cell viability 72 h (AZD4320) [µM] |
| --- | --- | --- | --- | --- | --- | --- | --- | --- | --- | --- | --- | --- | --- | --- | --- | --- | --- | --- | --- | --- | --- | --- | --- | --- | --- | --- | --- | --- | --- | --- | --- | --- | --- | --- | --- |
| DB (B-Cell Non-Hodgkin's Lymphoma) | 0.00896 | 0.00571 | > 10 | > 5 | 3.69 | 0.526 | > 0.3 | > 10 | > 20 | > 10 | > 1 | 0.00452 | > 10 | > 10 | 3.88 | > 1 | 7.68 | > 10 | > 10 | 7.97 | > 10 | > 10 | > 10 | 0.537 | 0.119 | > 3 | > 10 | 0.21 | 0.21 | > 10 | 0.109 | > 2 | > 0.001 | 0.251 | 0.143 |
| DOV13 (Ovarian Carcinoma) | 0.0118 | 0.0317 | 4.65 | > 5 | 2.73 | 1.11 | > 0.3 | > 10 | > 20 | > 10 | > 1 | 0.00935 | > 10 | > 10 | 1.93 | > 1 | 2.02 | > 10 | > 10 | 7.02 | > 10 | > 10 | > 10 | 0.98 | > 1 | > 3 | 2.13 | 0.65 | 0.0407 | > 10 | > 1 | 0.165 | > 0.001 | 0.308 | 0.464 |
| DSH1 (Bladder Carcinoma) | 0.00655 | 0.146 | 2.24 | 2.06 | 7.62 | 1.92 | > 0.3 | 0.792 | > 20 | > 10 | 0.615 | 0.0268 | > 10 | > 10 | > 10 | > 1 | > 10 | > 10 | > 10 | > 10 | 0.457 | > 10 | > 10 | > 1 | > 1 | > 3 | 4.62 | 0.242 | 0.153 | > 10 | 0.914 | > 2 | > 0.001 | 0.306 | > 1 |
| ES7 (Ewing's Sarcoma) | 0.00644 | 0.0033 | 3.02 | > 5 | 0.257 | 1.07 | > 0.3 | > 10 | 12.3 | 7.44 | > 1 | 0.00113 | > 10 | > 10 | 0.249 | > 1 | 3.87 | 7.75 | 3.82 | 3.36 | > 10 | > 10 | 2 | 0.0254 | > 1 | > 3 | 2.44 | 0.289 | 0.033 | > 10 | 0.861 | > 2 | > 0.001 | 0.0388 | 0.204 |
| G-292-Clone-A141B1 (Osteosarcoma) | > 0.3 | > 3 | 1.16 | > 5 | > 10 | > 3 | > 0.3 | > 10 | > 20 | > 10 | > 1 | > 0.3 | > 10 | > 10 | > 10 | > 1 | > 10 | > 10 | > 10 | > 10 | > 10 | > 10 | > 10 | > 1 | > 1 | > 3 | > 10 | > 1 | > 1 | > 10 | > 1 | > 2 | > 0.001 | > 1 | > 1 |
